Experiment in all cases: NCI anticancer screen, dose series, 48 h
The subject of experiment [1] is A498.
In experiment [2] the test system is ACHN.
Experiment [3] concerns CAKI-1.
Experiment [4] has as its system COLO 205.
Experiment [5] has as its system HOP-92.
In experiment [6] the test system is HT-29.
Experiment [7] has as its system Hs-578T.
Experiment [8] relates to IGROV-1.
The subject of experiment [9] is KM12.
Experiment [10] deals with MDA-N.
Experiment [11] has as its system MOLT-4.
The subject of experiment [12] is NCI-H522.
In experiment [13] the test system is OVCAR-8.
In experiment [14] the test system is PC-3.
The subject of experiment [15] is SF-295.
Experiment [16] relates to SK-MEL-28.
The subject of experiment [17] is SK-MEL-5.
Experiment [18] relates to SN12C.
The test system of experiment [19] is SR.
Experiment [20] relates to T47D.

Each structure is given as a SMILES string.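 Exposure lasted 48 hours, with cells grown in 96-well plates and compounds tested at five concentrations. Abbreviation: GI50, concentration required for 50% inhibition of growth.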 Active and inactive are the calls of the source. Cut-off read from the data, not from the text of the source: active = GI50 up to about 1.1 µM and inactive = higher. A value given as a limit tells only on which side of the number the result lay.

`CCCCCCCCCC(=O)NCCc1c[nH]c2ccc(OC)cc12`: the GI50 in experiment [1] was 16.3 µM (inactive); in experiment [2], 16.7 µM (inactive); in [3], 25.4 µM (inactive); in [4] it was 23.8 µM (inactive); in experiment [5], 16.2 µM (inactive); in experiment [6], 23.2 µM (inactive). For the same molecule, the GI50 in experiment [7] was 20.1 µM (inactive); in experiment [8] it was 14.9 µM (inactive); in experiment [9] it was 27.9 µM (inactive); in experiment [10], 18.8 µM (inactive); in [11], 64.7 µM (inactive); in [12] it was 16 µM (inactive). The GI50 is 16.6 µM (inactive) in experiment [13]; 15.3 µM (inactive) in experiment [14]; 17.4 µM (inactive) in [15]; 17.9 µM (inactive) in experiment [16]; 18.5 µM (inactive) in experiment [17]; 17.4 µM (inactive) in experiment [18]. For the same molecule, the GI50 in experiment [19] is 40.9 µM (inactive); in experiment [20] it was 19.7 µM (inactive).

For `Cn1c(CCC2(C)Cc3ccccc3C(=O)O2)cc2ccccc2c1=O` (centres undefined), the GI50 in [1] is 25.1 µM (inactive); in experiment [3], 13.9 µM (inactive); in [4], 27.1 µM (inactive); in experiment [5], 57.5 µM (inactive); in experiment [7], 37.7 µM (inactive); in [8], 27.3 µM (inactive). Besides, the GI50 is 4.66 µM (inactive) in experiment [9]; 22.6 µM (inactive) in experiment [10]; > 10 µM (inactive) in experiment [11]; 16.4 µM (inactive) in experiment [12]; > 100 µM (inactive) in [13]; 17.7 µM (inactive) in experiment [14]. Also, the GI50 in [15] was > 100 µM (inactive); in experiment [16], 28.8 µM (inactive); in experiment [17] it was 17.2 µM (inactive); in experiment [18], 44 µM (inactive); in experiment [19], 34.4 µM (inactive); in [20], 24.3 µM (inactive).

As to `O=C1C[C@H](COCc2ccccc2)NC(=O)C[C@H](COCc2ccccc2)NC(=O)C[C@H](COCc2ccccc2)N1`, the GI50 in experiment [1] was 12 µM (inactive); in experiment [2], 16.4 µM (inactive); in [3] it was > 100 µM (inactive); in experiment [4] it was > 100 µM (inactive); in [5], 12.2 µM (inactive); in experiment [6] it was > 100 µM (inactive). The GI50 in [7] is 39.9 µM (inactive); in experiment [8], > 100 µM (inactive); in [9] it was > 100 µM (inactive); in [10] it was > 100 µM (inactive); in experiment [11], 5.9 µM (inactive); in experiment [12] it was > 100 µM (inactive). Further, the GI50 in [13] was > 100 µM (inactive); in experiment [14] it was > 100 µM (inactive); in experiment [15], 19.2 µM (inactive); in experiment [16] it was > 100 µM (inactive); in experiment [17], > 100 µM (inactive); in [18] it was > 100 µM (inactive). The GI50 was 42.4 µM (inactive) in experiment [19] and 62.2 µM (inactive) in experiment [20].

As to `CCOC(=O)c1cccc(NC(=O)CI)c1`, the GI50 is 2.07 µM (inactive) in [1]; 0.682 µM (active) in experiment [2]; 0.55 µM (active) in experiment [3]; 0.531 µM (active) in experiment [4]; 1.07 µM (active) in experiment [5]; 0.313 µM (active) in experiment [6]. Also, the GI50 was 2.34 µM (inactive) in [7]; 0.338 µM (active) in [8]; 1.67 µM (inactive) in [9]; 0.211 µM (active) in [10]; 0.0284 µM (active) in [11]; 0.179 µM (active) in experiment [12]. The GI50 in experiment [13] is 0.264 µM (active); in [14], 1.14 µM (inactive); in experiment [15] it was 2.47 µM (inactive); in [16], 2.2 µM (inactive); in experiment [17], 0.507 µM (active); in [18], 0.29 µM (active). The GI50 in [19] is 0.0262 µM (active); in experiment [20], 1.39 µM (inactive).

On to `CCOC(=O)[C@H]1C[C@]23CN(C(=O)OC(C)(C)C)CC[C@H]2CCC2(SCCCS2)[C@@H]3N1C`, for which the GI50 is 52.2 µM (inactive) in experiment [1]; 40.9 µM (inactive) in [2]; 33.8 µM (inactive) in [3]; 28.2 µM (inactive) in experiment [4]; 14.1 µM (inactive) in experiment [5]; 22.5 µM (inactive) in experiment [6]. The GI50 in [7] was 51.6 µM (inactive); in experiment [8] it was 49.9 µM (inactive); in experiment [9], 33.3 µM (inactive); in experiment [10] it was 30.1 µM (inactive); in experiment [11], 24.3 µM (inactive); in [12] it was 27.5 µM (inactive). In addition, the GI50 in [13] is 37.8 µM (inactive); in [14], 25.2 µM (inactive); in experiment [15] it was 38.3 µM (inactive); in [16], 91 µM (inactive); in experiment [17] it was 18.5 µM (inactive); in experiment [18], 21.3 µM (inactive). Further, the GI50 in experiment [19] is 24 µM (inactive); in [20], 25.8 µM (inactive).

For the molecule `Cc1cc(C)nc(NS(=O)(=O)c2ccc(Nc3c4ccccc4nc4c(C(=O)NCCO)cccc34)cc2)n1`, the GI50 in experiment [1] is 38.5 µM (inactive); in experiment [2], 19.7 µM (inactive); in [3], 23.3 µM (inactive); in experiment [4] it was 15.1 µM (inactive); in [5], > 100 µM (inactive); in experiment [6], 13.1 µM (inactive). Besides, the GI50 in experiment [7] was 53.1 µM (inactive); in experiment [8] it was 25.8 µM (inactive); in experiment [9], 10.9 µM (inactive); in [10] it was 18.1 µM (inactive); in experiment [11], 4.79 µM (inactive); in experiment [12], 12.3 µM (inactive). Also, the GI50 is 8.24 µM (inactive) in [13]; 23.2 µM (inactive) in experiment [14]; 11.8 µM (inactive) in experiment [15]; 19.6 µM (inactive) in [16]; 17.1 µM (inactive) in experiment [17]; 15 µM (inactive) in experiment [18]. The GI50 in [19] is 10.7 µM (inactive); in experiment [20] it was 25.9 µM (inactive).

`O=C1Oc2ccccc2C(=O)/C1=C\Nc1nc(-c2ccccc2)cs1`: the GI50 is 27.7 µM (inactive) in experiment [1]; 11.2 µM (inactive) in [2]; 3.76 µM (inactive) in [3]; 2.6 µM (inactive) in experiment [4]; 11.1 µM (inactive) in experiment [5]; 5.21 µM (inactive) in experiment [6]. For the same molecule, the GI50 in experiment [7] is 15.7 µM (inactive); in experiment [8], 12.3 µM (inactive); in experiment [9], 16.7 µM (inactive); in experiment [10], 4.85 µM (inactive); in [11], 2.28 µM (inactive); in experiment [12], 2.31 µM (inactive). The GI50 in experiment [13] was 8 µM (inactive); in experiment [14], 16.9 µM (inactive); in experiment [15], 25.9 µM (inactive); in [16] it was 16.1 µM (inactive); in experiment [17], 2.75 µM (inactive); in [18] it was 7.08 µM (inactive). The results for the GI50 in experiment [19] and in experiment [20] were 2.01 µM (inactive) and 15.9 µM (inactive), respectively.

As for `CSc1c(C#N)c(N)n(-c2ccc(Cl)cc2)c(=O)c1C#N`, the GI50 was > 100 µM (inactive) in experiment [1]; > 100 µM (inactive) in experiment [3]; > 100 µM (inactive) in experiment [4]; 21 µM (inactive) in experiment [5]; > 100 µM (inactive) in experiment [6]; > 100 µM (inactive) in [7]. Further, the GI50 in experiment [8] was > 100 µM (inactive); in [9], > 100 µM (inactive); in [10], > 100 µM (inactive); in experiment [11] it was 61.4 µM (inactive); in experiment [12], 27.5 µM (inactive); in experiment [13] it was 67.8 µM (inactive). For the same molecule, the GI50 in [14] is > 100 µM (inactive); in experiment [16], > 100 µM (inactive); in [17] it was > 100 µM (inactive); in [18], > 100 µM (inactive); in experiment [19], 42.8 µM (inactive); in experiment [20], > 100 µM (inactive).

With `CC1CC(c2ccccc2)Nc2nc3ccccc3n21` (centres undefined), the GI50 in experiment [1] is > 100 µM (inactive); in experiment [2], > 100 µM (inactive); in experiment [3], > 100 µM (inactive); in experiment [4], > 100 µM (inactive); in [5], > 100 µM (inactive); in [6], 39.1 µM (inactive). In addition, the GI50 in experiment [7], in experiment [8], in [9], in experiment [10], in [11] and in [12] was > 100 µM (inactive) each time. The GI50 in experiment [13], in experiment [14], in [15], in experiment [16], in experiment [17] and in experiment [19] was > 100 µM (inactive) throughout. Also, the GI50 in [20] is > 100 µM (inactive).

As for `CC(C)=CCC[C@](C)(O[C@@H]1O[C@H](CO)[C@@H](O)[C@H](O)[C@H]1O)[C@H]1CC[C@]2(C)[C@@H]1[C@H](O)C[C@@H]1[C@@]3(C)CC[C@H](O)C(C)(C)[C@@H]3[C@@H](O[C@@H]3O[C@H](CO)[C@@H](O)[C@H](O)[C@H]3O)C[C@]12C` [GINSENOSIDE RG1], the GI50 in experiment [1], in [2], in experiment [3], in experiment [4], in experiment [5] and in experiment [6] was > 100 µM (inactive) throughout. The GI50 in [7], in experiment [8], in [9], in [10], in experiment [12] and in experiment [13] was > 100 µM (inactive) each time. For the same molecule, the GI50 in experiment [14], in experiment [15], in experiment [16], in experiment [17], in experiment [18] and in [19] was > 100 µM (inactive) in each case. The GI50 in experiment [20] was > 100 µM (inactive).

(Values after ChEMBL document CHEMBL1201862, “PubChem BioAssay data set” (2004).)
